The source of these data is patent US20240199611A1, “ANTIBACTERIAL COMPOUNDS” (JANSSEN SCIENCES IRELAND UNLIMITED COMPANY, priority 2021, published 2024).

The nature of data set [1]: GSH measurement (reactive metabolites). Type of data set: in vitro ADME. The text has this:
(§1) The compounds of the invention/examples may have advantages associated with in vitro potency, kill kinetics (i.e. bactericidal effect) in vitro, PK properties, food effect, safety/toxicity (including liver toxicity, coagulation, 5-LO oxygenase), metabolic stability, Ames II negativity, MNT negativity, aqueous based solubility (and ability to formulate) and/or cardiovascular effect e.g. on animals (e.g. anesthetized guinea pig). The data below that was generated/calculated may be obtained using standard methods/assays, for instance that are available in the literature or which may be performed by a supplier (e.g. Microsomal Stability Assay—Cyprotex, Mitochondrial toxicity (Glu/Gal) assay—Cyprotex, as well as literature CYP cocktail inhibition assays). In some instances, GSH was measured (reactive metabolites, glucuronidation) to observe if a dihydrodiol is observed by LCMS (fragmentation ions), which would correspond to a dihydroxylation on the core heterocycle.

Data set [2] relates to Na Ch. Kind of data set: CVS Na Ch.
For data set [3], the system named is Cyp 3A4. Kind of data set: Cyp 3A4 induction. Conditions: at 1 μM.
For data set [4] the following is noted: in vivo.
The target of data set [5] is Kinase panel. Kind of data set: Kinase panel. The class given is biochemical.
Data set [6] can be described thus: Mitochondrial toxicity (Glu/Gal) assay. Type of data set: cell-based.
Description: as §1

Data set [7] is described as follows: AMES II. Type of data set: cell-based.
Description: as §1

Data set [8] has as its system Ca Ch. Conditions: read-out: CVS Ca Ch IC50.
The subject of data set [9] is M. tuberculosis H37Rv. Conditions: strain M. tuberculosis H37Rv, inside macrophages; cited from earlier work.

Usually melting point stands for the temperature, or range, at which the solid turns liquid. The pIC50 is −log10 of the IC50, conventionally taken in molar units.

pIC50: −log10 of the molar value. ≈ marks a conversion by molar mass, not a printed value. A value given as a limit tells only on which side of the number the result lay.

As for `CCc1nc2ccc(C#N)cn2c1C(=O)NCc1ccc(N2CCN(S(=O)(=O)C(F)(F)F)C(OC)=N2)c(F)c1` [Compound 73], the melting point came out at 212.08 °C. In addition, in data set [1], the “GSH / reactive metabolites” value was “no measure of GSH”. In [2], this molecule gave a pIC50 below 5.00.

As to `CCc1nc2ncc(C)cn2c1C(=O)NCc1ccc(N2CCN(S(=O)(=O)C(F)(F)F)C=N2)c(F)c1` [Compound 161], in data set [3], the “Cyp 3A4 induction (% control)” value was found to be 3.0 % control. Further, the bioavailability entry in data set [4] was “good bioavailaibility”. Besides, the Kinase panel result in data set [5] was “negative”. In data set [6], the “Glu/Gal assay ratio (mitotoxicity)” value is given as below 3. Besides, the “AMES II” value in [7] is “negative”. In addition, in [8], the pIC50 is below 5.00.

As for `O=C(NCc1ccc(N2CCN(S(=O)(=O)C(F)(F)F)C=N2)c(F)c1)c1c(C(F)(F)F)nc2ccccn12` [Compound 152], the bioavailability result in [4] is listed as “good bioavailaibility”. In addition, in [6], the “Glu/Gal assay ratio (mitotoxicity)” value was below 3. In addition, the “GSH / reactive metabolites” value in data set [1] was “formation of reactive metabolites was blocked”.

Turning to `CCc1nc2ccc(Cl)cn2c1C(=O)NCc1ccc(N2CCC(c3ccc(OC(F)(F)F)cc3)CC2)cc1` [Compound Q203], in data set [9], the MIC50 was 0.28 nM (≈ 0.156 ng/mL).
